Measurements: patent publication US9925193B2, “Thioether derivatives as protein kinase inhibitors” (KTB TUMORFORSCHUNGSGESELLSCHAFT MBH, priority 2012, dated 2018)
pIC50: −log10 of the molar value.

Tests used:
KIT wt = target: T1, KIT wt (Homo sapiens, UniProt P10721); assay: 33PanQinase Activity Assay, KIT wt; type: biochemical; details: recombinant human protein kinase, 1 μM [γ-33P]-ATP, 30° C. 80 minutes
T1 construct: made in house; host or cells: Sf9 insect cells (baculovirus)
Protocol: (§1) The effect of the thioether derivatives 8a-v and 9a-i was tested on recombinant, human protein kinases. All protein kinases were expressed in Sf9 insect cells as human recombinant GST-fusion proteins or as His-tagged proteins by means of the baculovirus expression system. Protein kinases were purified by affinity chromatography using either GSH-agarose or Ni-NTH-agarose. The purity and identity of each was checked by SDS-PAGE/silver staining and by western blot analysis with specific antibodies.
(§2) A proprietary protein kinase assay (^33PanQinase® Activity Assay) was used for measuring the kinase activity. All kinase assays were performed in 96-well FlashPlates™ in a 50 μl reaction volume. The assay for all enzymes contained 60 mM HEPES-NaOH, pH 7.5, 3 mM MgCl2, 3 mM MnCl2, 3 μM Na-orthovanadate, 1.2 mM DTT, 50 μg/ml PEG20000 and 1 μM [γ-^33P]-ATP (approx. 5×10^5 cpm per well).
(§3) The reaction cocktails were incubated at 30° C. for 80 minutes. The reaction was stopped with 50 μl of 2% (v/v) H3PO4, plates were aspirated and washed two times with 200 μl of 0.9% (w/v) NaCl. Incorporation of ^33Pi was determined with a microplate scintillation counter. All assays were performed with a BeckmanCoulter/Sagian robotic system.

ALK = target: T2, ALK (Homo sapiens, UniProt Q9UM73); assay: 33PanQinase Activity Assay, ALK; type: biochemical; details: recombinant human protein kinase, 1 μM [γ-33P]-ATP, 30° C. 80 minutes
T2 construct: made in house; host or cells: Sf9 insect cells (baculovirus)
Protocol: as §1, §2, §3

AXL = target: T3, AXL (Homo sapiens, UniProt P30530); assay: 33PanQinase Activity Assay, AXL; type: biochemical; details: recombinant human protein kinase, 1 μM [γ-33P]-ATP, 30° C. 80 minutes
T3 construct: made in house; host or cells: Sf9 insect cells (baculovirus)
T3 sequence (P30530 26-894): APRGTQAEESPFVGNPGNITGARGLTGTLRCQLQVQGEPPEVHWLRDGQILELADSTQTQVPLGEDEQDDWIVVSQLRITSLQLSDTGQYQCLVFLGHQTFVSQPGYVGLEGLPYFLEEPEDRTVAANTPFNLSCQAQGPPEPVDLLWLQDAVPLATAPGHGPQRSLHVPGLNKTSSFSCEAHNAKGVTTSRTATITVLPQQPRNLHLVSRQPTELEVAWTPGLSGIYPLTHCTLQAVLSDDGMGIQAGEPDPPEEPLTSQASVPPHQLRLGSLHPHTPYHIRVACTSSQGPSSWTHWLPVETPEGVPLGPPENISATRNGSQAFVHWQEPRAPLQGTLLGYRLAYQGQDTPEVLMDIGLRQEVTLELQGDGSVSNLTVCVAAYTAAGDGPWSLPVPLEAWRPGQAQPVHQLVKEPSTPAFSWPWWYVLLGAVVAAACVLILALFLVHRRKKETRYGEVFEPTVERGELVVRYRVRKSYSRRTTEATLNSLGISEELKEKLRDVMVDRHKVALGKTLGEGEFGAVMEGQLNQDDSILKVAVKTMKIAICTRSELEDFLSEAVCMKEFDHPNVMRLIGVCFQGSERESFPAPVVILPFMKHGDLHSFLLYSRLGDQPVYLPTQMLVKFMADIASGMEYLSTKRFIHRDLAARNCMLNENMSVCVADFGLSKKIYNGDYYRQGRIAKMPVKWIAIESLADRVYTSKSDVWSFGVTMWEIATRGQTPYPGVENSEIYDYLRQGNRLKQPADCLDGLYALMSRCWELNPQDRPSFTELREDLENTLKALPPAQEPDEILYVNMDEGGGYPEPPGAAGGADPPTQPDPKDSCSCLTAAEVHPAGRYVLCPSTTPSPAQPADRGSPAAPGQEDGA
Protocol: as §1, §2, §3

SRC = target: T4, SRC (Homo sapiens, UniProt P12931); assay: 33PanQinase Activity Assay, SRC; type: biochemical; details: recombinant human protein kinase, 1 μM [γ-33P]-ATP, 30° C. 80 minutes
T4 construct: made in house; host or cells: Sf9 insect cells (baculovirus)
Protocol: as §1, §2, §3

FAK = target: T5, FAK (Homo sapiens, UniProt Q05397); assay: 33PanQinase Activity Assay, FAK; type: biochemical; details: recombinant human protein kinase, 1 μM [γ-33P]-ATP, 30° C. 80 minutes
T5 construct: made in house; host or cells: Sf9 insect cells (baculovirus)
Protocol: as §1, §2, §3

PIM1 = target: T6, PIM1 (Homo sapiens, UniProt P11309); assay: 33PanQinase Activity Assay, PIM1; type: biochemical; details: recombinant human protein kinase, 1 μM [γ-33P]-ATP, 30° C. 80 minutes
T6 construct: made in house; host or cells: Sf9 insect cells (baculovirus)
Protocol: as §1, §2, §3

IGF1-R = target: T7, IGF1-R (Homo sapiens, UniProt P08069); assay: 33PanQinase Activity Assay, IGF1-R; type: biochemical; details: recombinant human protein kinase, 1 μM [γ-33P]-ATP, 30° C. 80 minutes
T7 construct: made in house; host or cells: Sf9 insect cells (baculovirus)
Protocol: as §1, §2, §3

VEGF-R2 = target: T8, VEGF-R2 (Homo sapiens, UniProt P35968); assay: 33PanQinase Activity Assay, VEGF-R2; type: biochemical; details: recombinant human protein kinase, 1 μM [γ-33P]-ATP, 30° C. 80 minutes
T8 construct: made in house; host or cells: Sf9 insect cells (baculovirus)
Protocol: as §1, §2, §3

T2 sequence (Q9UM73 19-1620): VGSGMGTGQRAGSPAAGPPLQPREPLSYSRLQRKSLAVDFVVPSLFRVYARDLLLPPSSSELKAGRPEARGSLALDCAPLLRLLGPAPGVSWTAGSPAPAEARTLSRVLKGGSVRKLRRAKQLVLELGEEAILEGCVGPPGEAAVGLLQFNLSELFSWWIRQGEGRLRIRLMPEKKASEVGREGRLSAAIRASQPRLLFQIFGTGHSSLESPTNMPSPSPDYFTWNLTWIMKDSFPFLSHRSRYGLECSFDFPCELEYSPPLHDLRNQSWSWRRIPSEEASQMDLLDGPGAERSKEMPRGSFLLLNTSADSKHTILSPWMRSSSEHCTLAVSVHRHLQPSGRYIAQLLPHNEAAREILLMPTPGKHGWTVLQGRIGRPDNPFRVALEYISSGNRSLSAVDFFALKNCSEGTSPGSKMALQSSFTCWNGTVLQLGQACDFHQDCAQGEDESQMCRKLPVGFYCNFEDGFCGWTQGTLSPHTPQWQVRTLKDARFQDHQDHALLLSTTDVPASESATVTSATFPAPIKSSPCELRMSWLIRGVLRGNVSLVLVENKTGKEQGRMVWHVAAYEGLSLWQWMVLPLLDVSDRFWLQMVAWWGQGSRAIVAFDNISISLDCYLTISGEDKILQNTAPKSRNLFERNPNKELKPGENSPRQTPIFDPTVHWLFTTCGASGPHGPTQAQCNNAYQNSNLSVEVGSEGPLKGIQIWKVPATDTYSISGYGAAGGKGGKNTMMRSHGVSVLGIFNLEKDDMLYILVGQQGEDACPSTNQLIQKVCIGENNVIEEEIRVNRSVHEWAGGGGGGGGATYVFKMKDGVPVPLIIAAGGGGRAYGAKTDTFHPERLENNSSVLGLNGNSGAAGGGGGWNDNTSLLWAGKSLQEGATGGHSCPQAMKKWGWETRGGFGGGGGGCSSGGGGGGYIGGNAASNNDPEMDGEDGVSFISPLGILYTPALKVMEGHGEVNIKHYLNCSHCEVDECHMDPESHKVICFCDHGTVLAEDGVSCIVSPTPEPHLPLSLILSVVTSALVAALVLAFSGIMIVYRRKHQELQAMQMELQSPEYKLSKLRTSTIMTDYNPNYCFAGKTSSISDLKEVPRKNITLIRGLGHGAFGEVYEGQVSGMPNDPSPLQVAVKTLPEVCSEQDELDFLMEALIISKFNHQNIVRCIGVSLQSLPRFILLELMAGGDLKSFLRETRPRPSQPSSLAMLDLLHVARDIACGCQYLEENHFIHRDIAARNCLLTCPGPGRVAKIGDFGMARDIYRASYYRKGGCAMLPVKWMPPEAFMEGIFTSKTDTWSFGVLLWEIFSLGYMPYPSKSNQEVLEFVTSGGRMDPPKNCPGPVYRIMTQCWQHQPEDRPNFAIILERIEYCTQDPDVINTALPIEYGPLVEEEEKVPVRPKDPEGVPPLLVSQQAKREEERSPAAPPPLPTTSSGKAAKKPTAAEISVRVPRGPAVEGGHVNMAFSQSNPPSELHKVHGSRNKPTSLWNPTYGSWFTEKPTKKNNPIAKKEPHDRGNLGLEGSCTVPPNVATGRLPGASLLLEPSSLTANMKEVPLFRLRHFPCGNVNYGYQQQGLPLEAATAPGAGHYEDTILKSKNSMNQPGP
T5 sequence (Q05397 whole entry): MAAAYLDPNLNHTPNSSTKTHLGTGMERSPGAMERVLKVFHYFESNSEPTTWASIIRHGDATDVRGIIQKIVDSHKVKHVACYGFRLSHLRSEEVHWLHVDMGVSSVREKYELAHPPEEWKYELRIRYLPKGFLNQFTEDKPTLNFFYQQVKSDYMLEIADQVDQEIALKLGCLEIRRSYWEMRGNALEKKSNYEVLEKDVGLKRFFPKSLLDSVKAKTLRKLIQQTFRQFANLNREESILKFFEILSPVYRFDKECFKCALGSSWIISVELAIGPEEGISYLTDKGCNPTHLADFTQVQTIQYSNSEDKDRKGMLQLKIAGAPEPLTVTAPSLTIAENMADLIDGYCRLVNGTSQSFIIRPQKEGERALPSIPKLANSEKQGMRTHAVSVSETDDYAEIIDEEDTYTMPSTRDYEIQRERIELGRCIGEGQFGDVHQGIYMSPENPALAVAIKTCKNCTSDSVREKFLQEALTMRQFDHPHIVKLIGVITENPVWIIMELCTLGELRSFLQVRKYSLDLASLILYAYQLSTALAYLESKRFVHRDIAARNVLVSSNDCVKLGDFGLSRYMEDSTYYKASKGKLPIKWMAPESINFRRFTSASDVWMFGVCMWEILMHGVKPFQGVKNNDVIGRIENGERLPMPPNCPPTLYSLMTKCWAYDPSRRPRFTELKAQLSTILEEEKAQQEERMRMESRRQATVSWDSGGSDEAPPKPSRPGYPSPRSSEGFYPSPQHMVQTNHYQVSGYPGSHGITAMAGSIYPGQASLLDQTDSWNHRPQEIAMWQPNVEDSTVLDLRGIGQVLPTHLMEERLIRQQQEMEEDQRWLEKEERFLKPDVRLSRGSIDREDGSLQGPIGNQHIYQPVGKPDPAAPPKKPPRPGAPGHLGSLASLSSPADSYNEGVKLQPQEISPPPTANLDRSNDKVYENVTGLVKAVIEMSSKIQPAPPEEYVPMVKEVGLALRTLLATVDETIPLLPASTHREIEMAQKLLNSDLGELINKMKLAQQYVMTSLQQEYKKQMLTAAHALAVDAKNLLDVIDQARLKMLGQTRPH
T4 sequence (P12931 whole entry): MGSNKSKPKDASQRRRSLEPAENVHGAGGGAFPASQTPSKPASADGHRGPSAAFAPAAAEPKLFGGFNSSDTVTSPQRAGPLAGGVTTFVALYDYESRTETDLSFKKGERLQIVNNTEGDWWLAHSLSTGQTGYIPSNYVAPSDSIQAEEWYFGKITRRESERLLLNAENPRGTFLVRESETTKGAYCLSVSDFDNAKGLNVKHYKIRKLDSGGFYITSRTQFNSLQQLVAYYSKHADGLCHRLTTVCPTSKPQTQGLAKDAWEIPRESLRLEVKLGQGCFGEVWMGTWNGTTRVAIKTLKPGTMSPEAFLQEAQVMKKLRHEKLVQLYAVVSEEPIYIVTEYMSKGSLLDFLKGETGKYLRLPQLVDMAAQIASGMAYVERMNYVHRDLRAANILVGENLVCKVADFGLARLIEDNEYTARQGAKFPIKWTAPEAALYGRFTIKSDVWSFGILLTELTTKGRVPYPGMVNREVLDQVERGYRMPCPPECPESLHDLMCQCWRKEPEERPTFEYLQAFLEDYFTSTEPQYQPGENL
T1 sequence (P10721 26-976): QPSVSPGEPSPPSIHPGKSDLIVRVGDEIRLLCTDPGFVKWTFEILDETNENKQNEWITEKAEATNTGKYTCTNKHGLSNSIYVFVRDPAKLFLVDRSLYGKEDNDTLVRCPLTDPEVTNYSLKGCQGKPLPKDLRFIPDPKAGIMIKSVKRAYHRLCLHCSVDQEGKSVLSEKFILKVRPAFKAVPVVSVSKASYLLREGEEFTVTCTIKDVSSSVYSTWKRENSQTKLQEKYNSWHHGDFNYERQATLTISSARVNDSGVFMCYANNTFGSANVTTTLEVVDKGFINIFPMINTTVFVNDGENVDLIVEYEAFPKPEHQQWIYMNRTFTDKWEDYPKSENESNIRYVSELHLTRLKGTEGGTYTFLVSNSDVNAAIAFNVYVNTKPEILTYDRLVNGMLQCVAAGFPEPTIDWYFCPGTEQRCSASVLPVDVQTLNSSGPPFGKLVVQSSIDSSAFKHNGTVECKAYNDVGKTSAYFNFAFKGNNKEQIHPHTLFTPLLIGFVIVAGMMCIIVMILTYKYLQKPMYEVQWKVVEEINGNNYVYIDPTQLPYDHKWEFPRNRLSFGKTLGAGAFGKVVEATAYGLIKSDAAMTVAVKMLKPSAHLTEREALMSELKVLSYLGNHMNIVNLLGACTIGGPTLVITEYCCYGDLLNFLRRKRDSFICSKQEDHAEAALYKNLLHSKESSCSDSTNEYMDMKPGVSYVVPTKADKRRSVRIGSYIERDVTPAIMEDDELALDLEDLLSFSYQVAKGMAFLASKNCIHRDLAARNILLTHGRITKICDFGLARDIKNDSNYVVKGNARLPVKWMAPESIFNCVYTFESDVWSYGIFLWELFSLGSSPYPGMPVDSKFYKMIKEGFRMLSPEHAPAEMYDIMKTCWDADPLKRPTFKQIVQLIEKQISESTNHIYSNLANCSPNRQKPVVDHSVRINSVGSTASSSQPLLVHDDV
T6 sequence (P11309 whole entry): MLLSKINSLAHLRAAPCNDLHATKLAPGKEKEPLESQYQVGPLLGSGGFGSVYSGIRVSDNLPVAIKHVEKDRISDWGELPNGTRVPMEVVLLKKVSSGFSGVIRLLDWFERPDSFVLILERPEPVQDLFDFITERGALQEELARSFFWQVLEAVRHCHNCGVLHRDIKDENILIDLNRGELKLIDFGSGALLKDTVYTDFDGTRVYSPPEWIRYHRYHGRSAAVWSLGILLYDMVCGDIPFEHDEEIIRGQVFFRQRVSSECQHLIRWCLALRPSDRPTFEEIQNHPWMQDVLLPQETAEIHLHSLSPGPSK

| Compound | pIC50 (KIT wt) | melting point | pIC50 (ALK) | pIC50 (AXL) | pIC50 (SRC) | pIC50 (FAK) | pIC50 (PIM1) | pIC50 (IGF1-R) | pIC50 (VEGF-R2) |
| --- | --- | --- | --- | --- | --- | --- | --- | --- | --- |
| Fc1ccc(-c2cc3ncnc(Sc4nnc(-c5ccncc5)o4)c3s2)cc1 [Compound 8b, 2-{[6-(4-Fluorophenyl)thieno[3,2-d]pyrimidin-4-yl]thio}-5-(pyridin-4-yl)-1,3,4-oxadiazole] | 5.76 | 232 °C | 5.53 | 5.58 |  |  |  |  |  |
| COc1ccc(-c2cc3ncnc(Sc4nnc(-c5ccc(Cl)cc5)o4)c3s2)cc1 [Compound 8n, 2-(4-Chlorophenyl)-5-{[6-(4-methoxyphenyl)thieno[3,2-d]pyrimidin-4-yl]thio}-1,3,4-oxadiazole] |  | 221 to 223 °C | 6.00 | 5.57 | 6.26 | 5.85 |  |  |  |
| COc1ccc(-c2cc3nc(N)nc(Sc4nnc(-c5ccc(Cl)cc5)o4)c3s2)cc1 [Compound 8r, 4-{[5-(4-Chlorophenyl)-1,3,4-oxadiazol-2-yl]thio}-6-(4-methoxyphenyl)thieno[3,2-d]pyrimidin-2-amine] |  | 206 to 208 °C | 6.14 | 5.92 | 6.19 | 6.05 |  |  |  |
| O=S1(=O)CCC(Cc2nnc(Sc3ncnc4cc(-c5ccc(F)cc5)sc34)o2)C1 (stereo not shown) [Compound 8k, 3-{[5-({6-[4-Fluorophenyl]thieno[3,2-d]pyrimidin-4-yl}thio)-1,3,4-oxadiazol-2-yl]methyl}-tetrahydrothiophene-1,1-dioxide] |  | 180 to 182 °C | 5.53 | 5.34 | 5.58 | 5.24 | 4.58 | 5.12 | 5.69 |
| CN(C)Cc1nnc(Sc2ncnc3cc(-c4ccc(F)cc4)sc23)o1 [Compound 8c, 1-{5-[(6-{4-Fluorophenyl}thieno[3,2-d]pyrimidin-4-yl)thio]-1,3,4-oxadiazol-2-yl}-N,N-dimethylmethanamine] | 5.56 | 170 to 172 °C | 5.18 | 4.91 |  |  |  |  |  |
| Fc1ccc(-c2cc3ncnc(Sc4nnc(CN5CCCC5)o4)c3s2)cc1 [Compound 9b] | 5.19 |  | 5.52 | 5.22 |  | 4.82 |  |  |  |
| c1ccc(Cc2nnc(Sc3ncnc4[nH]c(-c5ccccc5)nc34)o2)cc1 [Compound 8t, 2-Benzyl-5-[(8-phenyl-9H-purin-6-yl)thio]-1,3,4-oxadiazole] |  | 198 to 199 °C | 4.12 | < 4.00 | 4.49 | 4.37 |  |  |  |
| COCCNc1nnc(Sc2ncnc3cc(-c4ccc(OC)cc4)sc23)s1 [Compound 9f] | 6.09 |  | 5.45 | 5.28 |  | 4.78 |  |  |  |
| COc1ccc(-c2cc3ncnc(Sc4nnc(-c5ccc(C(F)(F)F)cc5)o4)c3s2)cc1 [Compound 8o, 2-{[6-(4-Methoxyphenyl)thieno[3,2-d]pyrimidin-4-yl]thio}-5-[4-(trifluoro-methyl)phenyl]-1,3,4-oxadiazole] |  | 227 to 228 °C | 6.06 | 5.62 | 6.08 | 5.77 |  |  |  |
| COc1ccc(-c2cc3ncnc(Sc4n[nH]/c(=N\C5CC5)s4)c3s2)cc1 [Compound 9h] | 6.06 |  | 5.57 | 5.00 |  | 4.98 |  |  |  |
| COc1ccc(-c2cc3ncnc(Sc4nnnn4C)c3s2)cc1 [Compound 9g] | 5.99 |  | 5.63 | 5.24 |  | 5.22 |  |  |  |
| COc1ccc(-c2cc3ncnc(Sc4nnnn4C4CC4)c3s2)cc1 [Compound 9e] | 5.89 |  | 5.56 | 5.01 |  | 5.10 |  |  |  |
| Fc1ccc(-c2cc3ncnc(Sc4nnc(CN5CCOCC5)o4)c3s2)cc1 [Compound 8d, 4-{[5-({6-[4-Fluorophenyl]thieno[3,2-d]pyrimidin-4-yl}thio)-1,3,4-oxadiazol-2-yl]methyl}morpholine] | 5.41 |  | 5.25 | 5.12 |  |  |  |  |  |
| CC(C)(C)c1nnc(Sc2ncnc3cc(-c4ccc(F)cc4)sc23)o1 [Compound 8g, 2-(tert-Butyl)-5-{[6-(4-fluorophenyl)thieno[3,2-d]pyrimidin-4-yl]thio}-1,3,4-oxadiazole] |  | 197 to 199 °C | 5.63 | 5.21 | 5.60 | 5.32 | 4.64 | 5.48 | 5.39 |
| c1ccc(-c2nc3c(Sc4nnc(-c5ccco5)o4)ncnc3[nH]2)cc1 [Compound 8u, 2-(Furan-2-yl)-5-[(8-phenyl-9H-purin-6-yl)thio]-1,3,4-oxadiazole] |  | 224 to 225 °C | 4.66 | 4.40 | 4.96 | 4.64 |  |  |  |
| COc1ccc(-c2cc3ncnc(Sc4nnc(-c5ccccc5C)o4)c3s2)cc1 [Compound 8p, 2-{[6-(4-methoxyphenyl)thieno[3,2-d]pyrimidin-4-yl]thio}-5-(o-tolyl)-1,3,4-oxadiazole] |  | 184 to 186 °C | 6.04 | 5.72 | 6.17 | 5.89 |  |  |  |
| c1ccc(-c2nc3c(Sc4nnc(-c5ccncc5)o4)ncnc3[nH]2)cc1 [Compound 8s, 2-[(8-Phenyl-9H-purin-6-yl)thio]-5-(pyridin-4-yl)-1,3,4-oxadiazole] |  | 250 to 251 °C | 4.57 | 4.62 | 4.72 | 4.59 |  |  |  |
| COc1ccc(-c2cc3ncnc(Sc4nnc(-c5ccccc5)o4)c3s2)cc1 [Compound 8m, 2-{[6-(4-Methoxyphenyl)thieno[3,2-d]pyrimidin-4-yl]thio}-5-phenyl-1,3,4-oxadiazole] |  | 213 to 215 °C | 6.01 | 6.03 | 7.49 | 6.08 |  |  |  |
| Cc1nnc(Sc2ncnc3cc(-c4ccc(Cl)cc4)sc23)s1 [Compound 9i] | 5.90 |  | 4.82 | 4.38 |  | < 4.00 |  |  |  |
| Fc1ccc(-c2cc3ncnc(Sc4nnc(-c5ccccc5)o4)c3s2)cc1 [Compound 8a, 2-{[6-(4-Fluorophenyl)thieno[3,2-d]pyrimidin-4-yl]thio}-5-phenyl-1,3,4-oxadiazole] | 5.98 | 223 °C | 6.01 | 5.50 |  |  |  |  |  |
| Cn1nnnc1Sc1ncnc2cc(-c3ccc(F)cc3)sc12 [Compound 9d] | 5.62 |  | 4.87 | 4.54 |  | 4.87 |  |  |  |
| COc1ccc(-c2cc3ncnc(Sc4nnc(-c5ccc(Cl)cc5Cl)o4)c3s2)cc1 [Compound 8q, 2-(2,4-Dichlorophenyl)-5-{[6-(4-methoxyphenyl)thieno[3,2-d]pyrimidin-4-yl]thio}-1,3,4-oxadiazole] |  | 213 to 215 °C | 5.89 | 5.66 | 6.10 | 5.82 |  |  |  |
| O=C1CCCCCN1Cc1nnc(Sc2ncnc3cc(-c4ccc(Cl)cc4)sc23)o1 [Compound 9a] | 6.22 |  | 5.67 | 5.79 |  | 5.05 |  |  |  |
| Fc1ccc(-c2cc3ncnc(Sc4nnc(-c5ccc6c(c5)OCO6)o4)c3s2)cc1 [Compound 9c] | 5.31 |  | 6.03 | 5.18 |  | 5.45 |  |  |  |
